Reference: patent publication US7772228B2, “Method for treatment of bacterial infections with once or twice-weekly administered rifalazil” (priority 1998, dated 2010)
Values after ≈ are worked out from the molar mass of the structure shown. Read-outs that look alike come from different tables or passages of the source.

Assays:
[1] = clinical; details: human, in vivo
Excerpt: Pharmacokinetic analyses associated with clinical trials involved measurement of concentrations of rifalazil in plasma and/or whole blood of subjects participating in the four Phase 1 studies using high performance liquid chromatography.
(§1) Attempts were made to analyze the multiple-dose pharmacokinetics using a linear 3-compartment model, and a 3-compartment model incorporating enzyme induction. However, neither multi-compartmental model accurately characterized the pharmacokinetic parameters in all subjects. Daily dosing and related early terminations due to adverse reactions, differences in bioavailability from a food effect, and nonconnective dose administration further complicated these analyses. Therefore, only noncompartmental pharmacokinetic parameters were derived for clinical trials 003 and 004.

[2] = Multiple-dose oral toxicology studies in rats; format: in vivo
Method: (§2) In chronic studies with dogs and rats, the no-observed-adverse-effect-level was 1000 mg/kg. […] Significant partitioning of drug-related radioactivity to the formed elements of the blood was observed. […] The urine contained a small amount (5.5%) of radioactivity.
Single-dose and multiple-dose oral toxicology studies were conducted in mice, rats, and dogs. In addition, to maximize systemic exposure, single-dose intravenous (IV) and intraperitoneal (IP) studies were conducted in rats and mice. Four-week and 13-week oral studies in dogs and rats and 26-week oral studies in rats included standard clinical measurements and physical and pathological evaluations.

[3] = human, in vivo
Method: The fourth trial (004) was a also a randomized, rising, double-blind, multiple-dose, placebo-controlled study. In this trial, weekly doses of placebo or rifalazil (25 mg or 50 mg) were administered to the subjects for a total of 4 weeks. All subjects received the dose within 30 minutes after eating a standardized breakfast and were monitored for an additional 14 days after the last dose. Four subjects were randomized to placebo, six subjects to 25 mg rifalazil, and eight subjects to 50 mg rifalazil.
Laboratory testing regimen for 003 and 004 trials was the same as for 001 and 002 trials.
Results obtained in 004 clinical trial where the healthy volunteers received only one dose a week for four weeks are seen in FIGS. 8-10.

[4] = Clinical signs, general behavior and spontaneous locomotor activity of mice; format: in vivo
Method: Pharmacological studies were undertaken in mice, rats, and dogs, and in isolated guinea pig ileum.
Rifalazil had little effect on the clinical signs or general behavior of mice following oral administration of 100, 300, or 1,000 mg/kg. Rifalazil had no effect on the spontaneous locomotor activity of mice at 100 and 300 mg/kg.

[5] = system: M. tuberculosis; details: cited from earlier work
[6] = in vivo; set-up: species or system rats; details: rat
Method: as §2
Pharmacokinetic parameters were determined following single and multiple doses in rats and dogs. The doses in rats and dogs were based upon those utilized in the single and multiple-dose toxicology studies. In addition, the absorption, distribution, metabolism, and elimination of rifalazil was studied in rats and dogs. These studies confirmed prior findings that there are species differences vis-a-vis sensitivity to and response to treatment with rifalazil.

[7] = clinical; details: human, in vivo; remark: listed apart in the source
Excerpt: as §1, with “004. For the 004 clinical trial, the pharmacokinetic analysis of this multiple-dose study was limited to a comparison of the noncompartmental parameters obtained from the first dose (Day 1) data versus the fourth (last) dose (Day 22). Because of extensive sampling after the fourth dose, this study yielded the most complete data about terminal elimination of rifalazil given in a multiple-dose regimen.” for “004.”

[8] = system: M. tuberculosis in human macrophages; details: intracellular, cited from earlier work
[9] = system: Chlamydia pneumoniae strain AR-39; assay: Mouse model infected with Chlamydia pneumoniae; format: in vivo; details: intraperitoneal 1 mg/kg QID for three days; five days after cessation
Method: Sensitivity testing was conducted in cell cultures against Chlamydia pneumoniae strain TW-l 83 using rifalazil, clanthromycin, or azithromycin. […] The in vivo testing of rifalazil used a mouse model infected with Chlamydia pneumoniae strain AR-39. […] All control animals remained infected.

[10] = Half-life distribution t½ (mean)

## CO[C@H]1/C=C/O[C@@]2(C)Oc3c(C)c(O)c4c(=O)c(c5oc6cc(N7CCN(CC(C)C)CC7)cc(O)c6nc-5c4c3C2=O)NC(=O)/C(C)=C\C=C\[C@H](C)[C@H](O)[C@@H](C)[C@@H](O)[C@@H](C)[C@H](OC(C)=O)[C@@H]1C [Rifalazil, 3′-hydroxy-5′-(4-isobutyl-1-piperazinyl)benzoxasinorifamycin]
[1]
  Half-life distribution t½ (mean): 17.26 h
[1]; [10]
  half-life: 10.1 h
[1]; Tmax (mean)
  Tmax: 5.25 h
[2]; 26-week study
  doses with dose-related lymphocytic depletion in the spleens: > 30 mg/kg/day
[2]; chronic studies, rats
  no-observed-adverse-effect-level: 1000 mg/kg
[2]; multiple-dose oral, rats
  doses at which hematological changes were noted: > 30 mg/kg
[3]
  time for hematologic parameters to return to normal after the last dose: ≤ 14 days
[4]; 1000 mg/kg
  spontaneous locomotor activity: increase in spontaneous locomotor activity for one hour
[4]; 100 and 300 mg/kg
  spontaneous locomotor activity: no effect
[4]; oral 100, 300, or 1,000 mg/kg
  clinical signs or general behavior: little effect
[5]; 10 mg/kg six times a week
  lesions in the lung: no lesions observed in the lung
  reduction of log CFU in lungs: about 80%
[5]; Twice-a-week or once-a-week administration
  reduction of the bacteria: about 35%
[5]; once-a-week administration of these very high dosages
  reduction in CFU: about 42%
[6]; female
  CL/F: 3.62 mL/min/kg
[6]; male
  CL/F: 3.07 mL/min/kg
[6]
  half-life: 12.5 h
  radioactivity in the urine: 5.5%
  radioactivity recovered in the feces: 84%
[6]; 3 mg/kg
  bioavailability: 30 to 40%
[7]; 25 mg
  increase of AUC(0-24) on Day 22 relative to Day 1: approximately 17%
[7]; 25 mg, apparent terminal half-life, range
  half-life: 29.5 to 107 h
[7]; 50 mg
  increase of AUC(0-24) on Day 22 relative to Day 1: ~27%
[7]; 50 mg, apparent terminal half-life, range
  half-life: 65.9 to 148 h
[7]; [10]
  half-life: 10.5 h
[7]; Half-life elimination t½ (mean)
  half-life: ~61 h
[7]; Tmax (mean)
  Tmax: 5.7 h
[8]; strain Atencio
  MBC: 8 ng/mL (≈ 8.5 nM)
  MIC: 4 ng/mL (≈ 4.25 nM)
[8]; strain Erdman
  MBC: 8 ng/mL (≈ 8.5 nM)
  MIC: 8 ng/mL (≈ 8.5 nM)
[8]; strain H37Rv
  MBC: 16 ng/mL (≈ 17 nM)
  MIC: 4 ng/mL (≈ 4.25 nM)
[9]
  Chlamydia pneumoniae in the lungs: not detectable
